Literature values as cited in patent publication US20250235391A1, “Lip Balm Containing Caffeine, Nicotine or Testosterone” (Shear Kershman Laboratories, Inc., priority 2018, published 2025).

Q: With `CCCCCc1cc(O)c2c(c1)OC(C)(C)[C@@H]1CCC(C)=C[C@@H]21` [Dronabinol, A9-tetrahydrocannabinol] as the compound, how does the “duration of action for psychoactive effects” value (after oral administration) read?
A: 4 to 6 h

Q: What about the “duration of appetite stimulant effect” value (after oral administration) of the same compound?
A: ≥ 24 h

Q: What about the “peak effect (time)” value (after oral administration) of the same compound?
A: 2 to 4 h

Q: What about the maximal plasma levels (oral dosing of 20 mg in a sesame oil formulation) of the same compound?
A: around 10 ng/ml

Q: And the “administered dose reaching systemic circulation” value (oral, first pass hepatic metabolism and high lipid solubility)?
A: 10-20%

Q: And the “absorbed after a single oral dose” value (single oral dose)?
A: 90-95%
